The values that follow come from patent publication US20030202935A1, “Composition and formulations and their use as nociceptic, anti-axniolytic and anabolic agents” (priority 2000, published 2003).

Series [1] has as its system Intracellular Adenosine. Also noted: species or system Fischer 344 rats. As to conditions: rat, in vivo, po. The method, then: Folinic acid (50 mg/kg) was administered intraperitoneally once daily for fourteen days. […] Hearts were removed from animals and flash frozen in liquid nitrogen within 10 seconds of death. Liver and lungs were removed en bloc and flash frozen within 30 seconds of death. Brain tissue was subsequently dissected.

For series [2] the following is noted: cited from earlier work.

Take `Nc1nc(=O)c2c([nH]1)NCC(CNc1ccc(C(=O)N[C@@H](CCC(=O)O)C(=O)O)cc1)N2C=O` (mixture of isomers) [Folinic Acid (F.A.), folinic acid]: the “adenosine levels in the brain” value in series [1] is recorded as “dramatic increase”.
Consider `Nc1ncnc2c1ncn2[C@@H]1O[C@H](CO)[C@@H](O)[C@H]1O` [adenosine], for which the half life entry in series [2] is reported as “about a second”.
